pIC50: −log10 of the molar value.
Tests used:
Autotaxin [1] = molecular target: T1, Autotaxin (Homo sapiens, UniProt Q13822); test: Inhibition of ATX (unknown origin) using FS-3 as substrate preincubated with compound for 10 mins followed by substrate addition measured for 30 mins by fluorometric kinetic assay
Huh-7 = test: Anti-steatosis activity against oleic acid induced human Huh-7 cells assessed as reduction of lipid accumulation at 1 to 10 uM incubated for 24 hrs by […] based fluorescence microscopic analysis; format: functional; design: scale not given: the % may be the effect or the level left; conditions: dose 1-10 µM
[2] = Inhibition of collagen formation in oleic and palmitic acid induced human Huh-7 cells cocultured with human LX2 cells at 1 to 10 uM incubated for […] by Sirius Red staining based analysis; format: functional; conditions: dose 1-10 µM
LX-2 = test: Inhibition of cell migration in TGF-beta induced human LX2 cells by measuring cell uncovered area at 0.3 to 3 uM incubated for 24 hrs by wound healing assay; format: functional; conditions: dose 0.3-3 µM
Autotaxin [3] = molecular target: T1, Autotaxin; test: Inhibition of ATX (unknown origin) using FS-3 as substrate by measuring fold change preincubated with compound for 10 mins followed by substrate addition measured for 30 mins by fluorometric kinetic assay compared to 3-(2-(benzyloxy)benzylidene)-1-(3-chlorophenyl)pyrrolidine-2,5-dione; conditions: time 40.0 min

`O=C1C/C(=C/c2ccccc2OCc2ccccc2)C(=O)N1c1cccc(Cl)c1` showed a pIC50 (Autotaxin [1]) of 6.01.
In the case of `COC(=O)c1ccc(COc2ccccc2/C=C2\CC(=O)N(c3cccc(Cl)c3)C2=O)cc1`, the Activity (Huh-7) was 42%, the “inhibition (INH)” value [2] was 35% and the “inhibition (INH)” value (LX-2) was 23%. For the same compound, the pIC50 (Autotaxin [1]) was 6.89.
Compound `NC(=O)c1ccc(COc2ccccc2/C=C2/CC(=O)N(c3cccc(Cl)c3)C2=O)cc1` has a pIC50 (Autotaxin [1]) of 6.62.
For `O=C(Oc1cccc2ccccc12)c1ccc(COc2ccccc2/C=C2/CC(=O)N(c3cccc(Cl)c3)C2=O)cc1`, the pIC50 (Autotaxin [1]) was < 5.00.
In the case of `CC(C)OC(=O)c1ccc(COc2ccccc2/C=C2/CC(=O)N(c3cccc(Cl)c3)C2=O)cc1`, the pIC50 (Autotaxin [1]) was 6.57.
With `N#Cc1ccc(COc2ccccc2/C=C2/CC(=O)N(c3cccc(Cl)c3)C2=O)cc1` the fold change (FC) (Autotaxin [3]) was 3.5 and the pIC50 (Autotaxin [1]) was 6.55.
For `O=C(Oc1ccccc1)c1ccc(COc2ccccc2/C=C2/CC(=O)N(c3cccc(Cl)c3)C2=O)cc1`, the pIC50 (Autotaxin [1]) was 5.69.
For `CCCOC(=O)c1ccc(COc2ccccc2/C=C2/CC(=O)N(c3cccc(Cl)c3)C2=O)cc1`, the pIC50 (Autotaxin [1]) was 6.49.
For `CN(C)C(=O)c1ccc(COc2ccccc2/C=C2/CC(=O)N(c3cccc(Cl)c3)C2=O)cc1`, the pIC50 (Autotaxin [1]) was < 5.00.
For `O=C(O)c1ccc(COc2ccccc2/C=C2/CC(=O)N(c3cccc(Cl)c3)C2=O)cc1`, the pIC50 (Autotaxin [1]) was 5.03.

Reference: ChEMBL document CHEMBL6074663, “Design, synthesis and evaluation of 3-(2-(substituted benzyloxy)benzylidene) pyrrolidine-2,5-dione derivatives for novel ATX inhibitor” (Bioorg Med Chem Lett, 2024)
